Measurements published in US20250295661A1, “MENIN-MLL INHIBITORS FOR THE TREATMENT OF CANCER” (Syndax Pharmaceuticals, Inc., priority 2022, published 2025).

How the values were obtained:
dogs = assay: GLP 28-day dog toxicology study / QTc in dogs; type: in vivo
rats = assay: GLP 28-day rat toxicology study; type: in vivo
>125 molecular targets = assay: Off-target screening assays
[1] = Population PK model simulation of Compound A dosing regimens (one-compartment, first-order absorption, lag time); set-up: species or system human
Protocol: The rationale for these doses is based on PK data from 53 patients treated in Arm A (no strong cytochrome P450 CYP3A4 inhibitor) and Arm B (with a strong CYP3A4 inhibitor) of Study Compound A which were analyzed with a preliminary population PK model. The model was a one-compartment PK model with first-order absorption (ka) and lag time (Tlag) that described the individual PK data. The data confirmed the expected effect of a strong CYP3A4 inhibitor comedication in Arm B on the drug elimination rate (k) and apparent volume of distribution (Vz/F).
The starting dose of 163 mg TID of Compound A alone was selected because it provides Cmax, Cmin, as shown in FIGS. 2A-B, and AUC0-24 approximately half that of 163 mg q12 h with a strong CYP3A4 inhibitor, as shown in FIG. 2C; the lower exposure provides a margin of safety in case CRC patients are more sensitive to the effects of Compound A than acute myeloid leukemia patients. The dose of 276 mg TID is expected to show exposure similar to that for 163 mg q12 h with a strong CYP3A inhibitor based on 3 key PK parameters (Cmax, Cmin, and AUC0-24), as shown in FIGS. 2A-C and Table 3A.

CCN(C(=O)c1cc(F)ccc1Oc1cncnc1N1CC2(CCN(C[C@H]3CC[C@H](NS(=O)(=O)CC)CC3)CC2)C1)C(C)C [Compound A]
Potential main targeted organ of toxicity: heart (dogs; 28-day dog toxicology study): electrocardiogram [ECG] changes in dogs
Potential main targeted organs of toxicity (other) (dogs; 28-day rat and dog toxicology studies, dog): liver, bone marrow, lymphoid tissues, male reproductive system, and female reproductive system
QTc finding in dogs (dogs; dogs treated with Compound A): Prolonged QTc
Potential main targeted organs of toxicity (other) (rats; 28-day rat and dog toxicology studies, rat): liver, bone marrow, lymphoid tissues, male reproductive system, and female reproductive system
Potential main targeted organ of toxicity: eyes (rats; 28-day rat toxicology study): cataracts in rats only
Cross-reactivity in off-target screening (>125 molecular targets): no cross-reactivity
Cmax, Cmin and AUC0-24 relative to 163 mg q12 h with a strong CYP3A4 inhibitor ([1]; 163 mg TID of Compound A alone): approximately half
Exposure (Cmax, Cmin, AUC0-24) compared with 163 mg q12 h with a strong CYP3A inhibitor ([1]; 276 mg TID without CYP3A4 inhibitor): similar
